Here are results for 26 compounds from US8895744B2, “Alfa-carboline inhibitors of NPM-ALK, RET, and Bcr-Abl” (Universita' Degli Studi di Milano-Bicocca, priority 2008, dated 2014).

For assay [1], the target named is T1, Recombinant ALK kinase (Homo sapiens, UniProt Q9UM73).
T1 construct: made in house; host or cells: Sf9 insect cells (baculovirus)
Kind of assay: ALK kinase inhibitory activity, ELISA-based in vitro kinase assay. The assay is classed as biochemical. Particulars: purified rALK, 0.3 mM ATP, read-out: ALK IC50. How it is done: 36. Alk Kinase Inhibitory Activity
Method: ELISA-Based In Vitro Kinase Assay
Recombinant ALK kinase was expressed in Sf9 insect cells using the pBlueBacHis2C baculovirus vector system and purified using an anion exchange Fast Flow Q-sepharose column (Amersham-Pharmacia Biotech) followed by HiTrap™-nickel affinity column (Amersham-Pharmacia Biotech). Purified ALK protein was used to screen inhibitors in the ELISA-based kinase assay. A Nunc Immuno 96 well plate was incubated overnight at 37° C. with coating solution (125 μL/well) containing ALK peptide substrate ([…]) (SEQ ID NO: 1) at various concentrations in PBS. Wells were then washed with 200 μL of wash buffer (PBS-Tween 0.05%) and left to dry for at least 2 h at 37° C. The kinase reaction was performed in the presence of 50 mM Tris pH 7.5, 5 mM MnCl2, 5 mM MgCl2, 0.3 mM ATP and purified rALK in a total volume of 100 μL/well at 30° C. for 15 min. For inhibitor testing the reaction mix was preincubated with the inhibitor or solvent control for 10 min at room temperature before transferring to the ELISA plate. After the reaction wells were washed 5 times with 200 μL of wash buffer. Phosphorylated peptide was detected using 100 μL/well of a mouse monoclonal anti-phosphotyrosine antibody (clone 4G10 Upstate Biotech Ltd) diluted 1:2000 in PBS+4% BSA. After 30 min incubation at room temperature the antibody was removed and wells were washed as described above. 100 μL of a secondary antibody (anti-mouse IgG, Horseradish Peroxidase linked whole antibody, Amersham Pharmacia Biotech) diluted 1:1000 in PBS+4% BSA was added to each well and the plate was incubated again for 30 min at room temperature before washing as above. The plate was developed using 100 μL/well TMB Substrate Solution (Endogen) and the reaction was stopped by adding an equiv.ual volume of H2SO4 0.36 M. Finally, the absorbance was read at 450 nm using an Ultrospec® 300 spectrophotometer (Amersham-Pharmacia Biotech). The concentration of the test solution showing 50% inhibition as compared with the control was expressed as IC50 (μM).
For orientation: ELISA stands for enzyme-linked immunosorbent assay.

For assay [2], the system named is parent untransformed BaF3 cells. The assay can be described thus: Tritiated thymidine uptake cell proliferation assay, parental BaF3 (control). The assay is classed as cell-based. The note with it: Mus musculus, 3[H]-thymidine uptake, 72 h, medium with IL-3, read-out: BaF parental IC50. The method, then:
(§1) Method: Tritiated Thymidine Uptake Cell Proliferation Assay
(§2) The following procedure was used with parent untransformed BaF3 cells, BaF3 cells transformed with the oncogenic fusion protein NPM/ALK, NPM/ALK positive SUDHL-1 cells, ALK-negative U937 cells, NPM/ALK positive KARPAS-299 cells. The parent untransformed BaF3 cells and Alk-negative U937 cells are used as controls. Cells were seeded in U-bottomed 96-well plates at 10 000 cells/well in a volume of 100 μL in supplemented medium. In the case of the parent untransformed BaF3 cells, the medium was supplemented with IL-3. Serial dilutions of inhibitors were added to the appropriate wells and volumes adjusted to 200 μL. Controls were treated with the equivalent volume of vehicle, DMSO, alone. Plates were incubated at 37° C. for 72 h. ^3[H]-thymidine (1 μCi/well) was added for the last 16 h of incubation. Cells were harvested on to paper filters and ^3[H]-thymidine incorporation was measured using a β scintillation counter (1430 MicroBeta, Wallac, Turku, Finland). The 50% inhibitory concentration (IC50) was defined as the concentration of inhibitor, expressed in micromolar, that gave a 50% decrease in ^3[H]-thymidine uptake compared with controls.
as §2, with “protein bcr-abl, Abl-negative” for “protein NPM/ALK, NPM/ALK positive SUDHL-1 cells, ALK-negative”, “cells, or Bcr-abl” for “cells, NPM/ALK”, “positive LAMA-84” for “positive KARPAS-299”, “and Abl-negative” for “and Alk-negative”, “in ^3H-thymidine” for “in ^3[H]-thymidine”
as §2, with “RET-PTC2, or RET-negative 11937” for “NPM/ALK, NPM/ALK positive SUDHL-1 cells, ALK-negative U937 cells, NPM/ALK positive KARPAS-299”, “RET-negative” for “Alk-negative”

Assay [3] addresses T2, BaF3 cells transformed with the oncogenic fusion protein NPM/ALK (Homo sapiens, UniProt Q9UM73).
T2 construct: fused on or other part: P06748 (Nucleophosmin)
The assay can be described thus: Tritiated thymidine uptake cell proliferation assay, BaF3 NPM/ALK. The assay is classed as cell-based. Particulars: 3[H]-thymidine uptake, 72 h; read-out: BaF NPM/ALK IC50. How it is done: Inhibition of the proliferation of NPM/ALK positive cells
as §1, §2

What is called IC50 is the point on the concentration scale where inhibition reaches its midpoint.

Molecules are shown by their SMILES.

T2 sequence (Q9UM73 whole entry, change not shown, the tested form may be a part): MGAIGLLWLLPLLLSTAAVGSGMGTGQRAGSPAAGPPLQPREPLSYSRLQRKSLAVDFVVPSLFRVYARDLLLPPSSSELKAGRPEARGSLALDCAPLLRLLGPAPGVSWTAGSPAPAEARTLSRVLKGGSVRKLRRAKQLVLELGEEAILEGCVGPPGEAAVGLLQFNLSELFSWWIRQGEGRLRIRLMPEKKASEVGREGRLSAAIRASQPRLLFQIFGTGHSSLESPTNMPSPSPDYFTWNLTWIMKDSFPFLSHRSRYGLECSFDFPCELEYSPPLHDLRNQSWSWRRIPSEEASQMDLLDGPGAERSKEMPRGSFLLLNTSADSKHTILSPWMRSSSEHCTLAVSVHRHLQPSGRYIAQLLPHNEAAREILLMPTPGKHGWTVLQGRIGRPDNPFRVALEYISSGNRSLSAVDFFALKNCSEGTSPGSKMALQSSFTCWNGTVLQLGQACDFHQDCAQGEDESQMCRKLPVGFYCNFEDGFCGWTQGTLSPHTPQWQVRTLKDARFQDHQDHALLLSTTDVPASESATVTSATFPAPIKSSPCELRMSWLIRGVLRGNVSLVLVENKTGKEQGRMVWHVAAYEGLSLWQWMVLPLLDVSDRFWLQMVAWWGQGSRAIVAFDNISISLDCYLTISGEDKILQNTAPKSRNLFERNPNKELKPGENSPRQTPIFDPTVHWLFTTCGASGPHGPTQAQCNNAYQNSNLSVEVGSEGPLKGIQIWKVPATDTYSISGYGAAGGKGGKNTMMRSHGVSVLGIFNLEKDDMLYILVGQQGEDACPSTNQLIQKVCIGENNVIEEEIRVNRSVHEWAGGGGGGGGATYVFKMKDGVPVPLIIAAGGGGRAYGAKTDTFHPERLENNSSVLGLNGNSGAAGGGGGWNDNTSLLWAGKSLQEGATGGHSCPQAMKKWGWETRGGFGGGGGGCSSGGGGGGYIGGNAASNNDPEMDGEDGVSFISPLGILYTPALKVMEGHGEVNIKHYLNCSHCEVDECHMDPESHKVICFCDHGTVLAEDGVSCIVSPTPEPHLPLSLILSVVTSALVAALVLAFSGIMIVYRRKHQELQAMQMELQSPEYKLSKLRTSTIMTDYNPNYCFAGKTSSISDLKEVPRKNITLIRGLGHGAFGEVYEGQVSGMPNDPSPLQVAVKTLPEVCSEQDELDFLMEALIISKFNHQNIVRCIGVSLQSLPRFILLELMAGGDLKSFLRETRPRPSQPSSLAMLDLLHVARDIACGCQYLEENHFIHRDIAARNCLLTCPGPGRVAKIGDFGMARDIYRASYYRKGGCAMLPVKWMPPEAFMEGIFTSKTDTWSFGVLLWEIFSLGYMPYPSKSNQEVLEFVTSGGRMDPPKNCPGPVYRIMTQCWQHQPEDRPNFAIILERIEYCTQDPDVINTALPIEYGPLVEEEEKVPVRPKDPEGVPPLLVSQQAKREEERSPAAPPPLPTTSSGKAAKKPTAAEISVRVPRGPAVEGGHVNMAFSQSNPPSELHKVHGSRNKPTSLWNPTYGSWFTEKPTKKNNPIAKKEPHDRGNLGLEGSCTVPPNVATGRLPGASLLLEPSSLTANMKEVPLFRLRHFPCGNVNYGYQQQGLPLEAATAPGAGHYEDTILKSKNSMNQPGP
T1 sequence (Q9UM73 19-1620): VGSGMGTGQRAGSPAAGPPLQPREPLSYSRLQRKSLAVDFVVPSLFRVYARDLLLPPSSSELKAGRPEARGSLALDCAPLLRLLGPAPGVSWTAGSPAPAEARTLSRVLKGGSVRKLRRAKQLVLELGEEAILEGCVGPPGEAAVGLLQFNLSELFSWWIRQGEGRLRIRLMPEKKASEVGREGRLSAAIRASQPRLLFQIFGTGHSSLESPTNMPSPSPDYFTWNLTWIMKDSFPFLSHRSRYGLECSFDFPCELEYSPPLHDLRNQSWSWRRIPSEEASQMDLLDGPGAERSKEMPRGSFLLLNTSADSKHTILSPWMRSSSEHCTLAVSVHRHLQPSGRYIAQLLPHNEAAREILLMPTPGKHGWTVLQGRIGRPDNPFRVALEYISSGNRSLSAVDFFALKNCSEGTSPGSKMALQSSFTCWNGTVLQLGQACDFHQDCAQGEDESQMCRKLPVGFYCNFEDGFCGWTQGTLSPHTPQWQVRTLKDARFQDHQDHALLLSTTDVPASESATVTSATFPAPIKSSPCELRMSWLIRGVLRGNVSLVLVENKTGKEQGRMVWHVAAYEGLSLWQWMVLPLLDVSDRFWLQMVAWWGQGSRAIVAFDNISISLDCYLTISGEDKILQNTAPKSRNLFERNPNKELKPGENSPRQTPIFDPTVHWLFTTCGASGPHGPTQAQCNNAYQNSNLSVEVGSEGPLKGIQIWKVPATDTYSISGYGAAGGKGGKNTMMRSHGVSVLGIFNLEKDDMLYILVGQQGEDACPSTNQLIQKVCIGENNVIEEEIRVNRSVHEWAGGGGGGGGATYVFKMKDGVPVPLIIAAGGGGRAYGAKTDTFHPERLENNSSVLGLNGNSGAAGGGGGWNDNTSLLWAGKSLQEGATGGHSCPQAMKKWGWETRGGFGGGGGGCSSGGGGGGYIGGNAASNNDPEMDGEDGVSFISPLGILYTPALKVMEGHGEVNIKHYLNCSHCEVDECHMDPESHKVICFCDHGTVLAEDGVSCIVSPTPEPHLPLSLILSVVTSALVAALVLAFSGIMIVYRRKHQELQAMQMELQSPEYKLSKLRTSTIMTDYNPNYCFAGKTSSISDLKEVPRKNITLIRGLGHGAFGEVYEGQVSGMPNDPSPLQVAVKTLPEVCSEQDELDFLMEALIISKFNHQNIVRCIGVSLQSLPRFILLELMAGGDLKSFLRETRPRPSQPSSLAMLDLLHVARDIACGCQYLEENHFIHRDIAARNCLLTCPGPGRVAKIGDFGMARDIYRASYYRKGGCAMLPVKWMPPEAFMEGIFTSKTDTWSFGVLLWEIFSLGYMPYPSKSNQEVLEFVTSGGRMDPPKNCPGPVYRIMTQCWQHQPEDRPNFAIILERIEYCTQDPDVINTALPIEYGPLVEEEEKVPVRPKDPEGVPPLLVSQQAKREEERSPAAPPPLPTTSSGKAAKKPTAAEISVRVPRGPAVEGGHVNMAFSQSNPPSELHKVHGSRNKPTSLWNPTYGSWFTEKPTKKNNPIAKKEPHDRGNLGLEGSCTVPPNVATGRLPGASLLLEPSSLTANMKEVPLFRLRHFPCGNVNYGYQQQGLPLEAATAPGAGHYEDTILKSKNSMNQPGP

As for `O=C(Nc1ccc2[nH]c3ncccc3c2c1)c1ccccc1` [R249], the IC50 in assay [1] was more than 100 µM.

Turning to `CNCC(=O)c1ccc2[nH]c3ncccc3c2c1` [R245], the IC50 in assay [1] is 82.4 ± 8.1 µM.

Regarding `Fc1cccc(/C=C/c2cnc3[nH]c4ccc(/C=C/c5ccccc5)cc4c3c2)c1` [R359, 3-((E)-2′-(3-fluorophenyl)ethenyl)-6-(E)-(2-(phenyl)ethenyl)-9H-pyrido[2,3-b]indole], the IC50 in assay [1] was more than 100 µM.

On to `c1ccc(-c2ccc(-c3ccnc4[nH]c5ccccc5c34)cc2)cc1` [R330, 4-(4-phenylphenyl)-9H-pyrido[2,3-b]indole], for which the IC50 was more than 100 µM in assay [2] and 14 ± 2 µM in assay [1]. In assay [3], the GI50 is more than 100 µM.

As for `C(=C\c1ccc2[nH]c3nc(Nc4ccccc4)ccc3c2c1)/c1ccccc1` [R320], the IC50 in assay [2] is 23 µM.

`c1coc(-c2cnc3[nH]c4ccccc4c3c2)c1` [R325, 3-(furan-2-yl)-9H-pyrido[2,3-b]indole]: the IC50 in assay [2] was more than 100 µM. The GI50 in assay [3] is more than 100 µM.

Consider `c1c[nH]c(-c2ccc3c(n2)[nH]c2ccccc23)c1` [R355, 2-(1H-pyrrol-2-yl)-9H-pyrido[2,3-b]indole], for which the IC50 in assay [1] was more than 100 µM.

As for `CCN(CC)CCSCC(=O)c1ccc2[nH]c3nc(Nc4cccc([N+](=O)[O-])c4)ccc3c2c1` [R321, 2-(2′-(N,N-diethylamino)ethylthio)-1-[2-(3-nitrophenylamino)-9H-pyrido[2,3-b]indol-6-yl]ethanone], the IC50 in assay [2] turned out to be 0.7 µM; in assay [1], 18 ± 1 µM. Further, the GI50 in assay [3] is 0.3 µM.

On to `Cc1ccc2c(n1)[nH]c1ccc(C(=O)c3ccccc3)cc12` [R243, 6-benzoyl-2-methyl-9H-pyrido[2,3-b]indole], for which, in assay [1], the IC50 was found to be 15.3 ± 1.5 µM.

Regarding `COc1ccc(-c2ccc3[nH]c4ncc(-c5cccc([N+](=O)[O-])c5)cc4c3c2)cc1` [R356], in assay [1], the IC50 was more than 100 µM.

For the compound `CN(C)/C=C/C(=O)c1ccc2[nH]c3ncccc3c2c1` [R246], in assay [1], the IC50 stood at 55.1 ± 16.9 µM.

Turning to `O=[N+]([O-])c1cccc(-c2cnc3[nH]c4ccccc4c3c2)c1` [R328, 3-(3-nitrophenyl)-9H-pyrido[2,3-b]indole], the IC50 in assay [2] worked out at 6.8 µM; in assay [1], 48 ± 17 µM. Moreover, the GI50 in assay [3] is 13 µM.

In the case of `Clc1cnc2[nH]c3ccc(-c4ccc(N5CCOCC5)cn4)cc3c2c1` [R308, 3-Chloro-6-(5-morpholin-4-yl-pyridin-2-yl)-9H-pyrido[2,3-b]indole], the IC50 was 50 µM in assay [2] and more than 100 µM in assay [1]. Besides, the GI50 in assay [3] was 60 µM.

Turning to `COc1ccc2sc(SCC(=O)c3ccc4[nH]c5ncc(Cl)cc5c4c3)nc2c1` [R301, 1-(3-chloro-9H-pyrido[2,3-b]indol-6-yl)-2-(5-methoxybenzothiazol-2-ylsulfanyl)éthanone], the IC50 in assay [1] is 38 ± 16 µM.

Turning to `O=[N+]([O-])/C=C/c1ccc2[nH]c3ncccc3c2c1` [R244], the IC50 in assay [1] was determined as 14.6 ± 2.8 µM.

With `CN1CCN(C(=O)CCC(=O)c2ccc3[nH]c4nc(Cl)ccc4c3c2)CC1` [R302, 1-(2-Chloro-9H-pyrido[2,3-b]indol-6-yl)-4-(4-methylpiperazin-1-yl)butane-1,4-dione], the IC50 in assay [2] was found to be 5.8 µM; in assay [1], 24 ± 2 µM. In assay [3], the GI50 is 4.8 µM.

Consider `COC(=O)C(=O)c1ccc2[nH]c3nc(C)ccc3c2c1` [R241, Methyl 2-oxo-2-[2-methyl-9H-pyrido[2,3-b]indol-6-yl]acetate], for which, in assay [1], the IC50 was 25.3 ± 2.6 µM.

On to `COc1cccc(Nc2cnc3[nH]c4ccccc4c3c2)c1` [R344, N-(3-methoxyphenyl)-9H-pyrido[2,3-b]indol-3-amine], for which the IC50 in assay [1] was more than 100 µM.

Take `Nc1cccc(-c2ccc3[nH]c4ncccc4c3c2)n1` [R247]: the IC50 in assay [1] was more than 100 µM.

Regarding `COc1cccc(Nc2ccnc3[nH]c4ccccc4c23)c1` [R324, N-(3-methoxyphenyl)-9H-pyrido[2,3-b]indol-4-amine], the half-maximal inhibitory concentration (IC50) is 1.7 µM in assay [2] and more than 100 µM in assay [1]. In addition, in assay [3], the GI50 was found to be 3.8 µM.

Take `c1ccc(-c2ccc(-c3cnc4[nH]c5ccccc5c4c3)cc2)cc1` [R329, 3-(4-phenylphenyl)-9H-pyrido[2,3-b]indole]: the IC50 was more than 100 µM in assay [2] and 12 ± 7 µM in assay [1]. In addition, the GI50 in assay [3] is more than 100 µM.

Take `COc1ccc(-c2ccc3[nH]c4ncc(-c5cccc(N)c5)cc4c3c2)cc1` [R357, 3-(6-(4-methoxyphenyl)-9H-pyrido[2,3-b]indol-3-yl)benzenamine]: the IC50 in assay [1] was more than 100 µM.

As to `O=[N+]([O-])c1cccc(Nc2ccnc3[nH]c4ccccc4c23)c1` [R322, N-(3-nitrophenyl)-9H-pyrido[2,3-b]indol-4-amine], the results for the IC50 in assay [2] and in assay [1] were more than 100 µM and 20 ± 4 µM, respectively. For the same compound, the GI50 in assay [3] is 57 µM.

For `C(=C\c1ccc2c(n1)[nH]c1ccc(-c3ccc(CN4CCOCC4)cc3)cc12)/c1ccccc1` [R316], the concentration for half-maximal inhibition (IC50) in assay [2] and in assay [1] was more than 33 µM throughout. Besides, the GI50 in assay [3] amounted to 10 µM.

In the case of `CC(=O)c1ccc2[nH]c3nc(C)ccc3c2c1` [R242, 6-acetyl-2-methyl-9H-pyrido[2,3-b]indole], in assay [1], the half-inhibitory concentration (IC50) worked out at 87.1 ± 1.3 µM.

Regarding `O=C(CBr)c1ccc2[nH]c3ncc(Cl)cc3c2c1` [R251, 2-Bromo-1-(3-chloro-9H-pyrido[2,3-b]indol-6-yl)ethanone], in assay [1], the IC50 came to 9.7 ± 1.3 µM.
